Measured values: ChEMBL document CHEMBL5465560, “Selectivity Literature for EUbOPEN Chemogenomic Library” (2024)

What was measured:
[1] = target: T1, Serine/threonine-protein kinase TAO1 (Homo sapiens) (UniProt Q7L7X3); test: Selectivity interaction (KinomeScan (DiscoverX)) EUB0000655a TAOK1; conditions: at 10 µM
T1 sequence (whole entry): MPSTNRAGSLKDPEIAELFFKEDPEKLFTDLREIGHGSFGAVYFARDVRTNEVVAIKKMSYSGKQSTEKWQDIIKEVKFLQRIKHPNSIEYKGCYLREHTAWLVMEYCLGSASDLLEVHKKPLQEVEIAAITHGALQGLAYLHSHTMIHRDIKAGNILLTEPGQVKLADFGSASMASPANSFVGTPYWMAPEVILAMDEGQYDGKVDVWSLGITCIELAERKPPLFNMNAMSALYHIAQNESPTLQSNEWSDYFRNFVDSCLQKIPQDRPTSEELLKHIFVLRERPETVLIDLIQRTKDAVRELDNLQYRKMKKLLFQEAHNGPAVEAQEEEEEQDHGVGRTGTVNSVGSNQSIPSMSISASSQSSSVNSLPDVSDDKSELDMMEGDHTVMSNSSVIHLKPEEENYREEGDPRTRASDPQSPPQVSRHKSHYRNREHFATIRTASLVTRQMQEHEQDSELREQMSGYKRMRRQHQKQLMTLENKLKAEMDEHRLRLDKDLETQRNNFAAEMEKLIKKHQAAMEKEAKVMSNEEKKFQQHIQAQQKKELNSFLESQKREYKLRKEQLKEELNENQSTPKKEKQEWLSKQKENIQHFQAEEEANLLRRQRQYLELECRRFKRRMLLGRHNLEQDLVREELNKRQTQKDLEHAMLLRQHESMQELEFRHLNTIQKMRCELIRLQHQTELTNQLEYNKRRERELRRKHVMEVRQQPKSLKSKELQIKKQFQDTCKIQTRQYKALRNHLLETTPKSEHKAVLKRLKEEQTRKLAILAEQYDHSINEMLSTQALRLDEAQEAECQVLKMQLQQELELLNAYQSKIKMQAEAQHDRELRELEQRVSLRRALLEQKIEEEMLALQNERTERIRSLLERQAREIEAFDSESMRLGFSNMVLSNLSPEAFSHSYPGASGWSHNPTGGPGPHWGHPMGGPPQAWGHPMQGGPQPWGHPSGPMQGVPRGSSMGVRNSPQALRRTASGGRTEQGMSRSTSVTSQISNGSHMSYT

[2] = test system: Epidermal growth factor receptor (Homo sapiens), P00533 [UNDEFINED MUTATION]; test: Selectivity interaction (ProQinase) EUB0000171b EGFR; conditions: at 5 µM
[3] = target: T2, Ephrin type-A receptor 6 (Homo sapiens) (UniProt Q9UF33); test: Selectivity interaction (KinomeScan (DiscoverX)) EUB0000666a EPHA6; conditions: at 10 µM
T2 sequence (whole entry): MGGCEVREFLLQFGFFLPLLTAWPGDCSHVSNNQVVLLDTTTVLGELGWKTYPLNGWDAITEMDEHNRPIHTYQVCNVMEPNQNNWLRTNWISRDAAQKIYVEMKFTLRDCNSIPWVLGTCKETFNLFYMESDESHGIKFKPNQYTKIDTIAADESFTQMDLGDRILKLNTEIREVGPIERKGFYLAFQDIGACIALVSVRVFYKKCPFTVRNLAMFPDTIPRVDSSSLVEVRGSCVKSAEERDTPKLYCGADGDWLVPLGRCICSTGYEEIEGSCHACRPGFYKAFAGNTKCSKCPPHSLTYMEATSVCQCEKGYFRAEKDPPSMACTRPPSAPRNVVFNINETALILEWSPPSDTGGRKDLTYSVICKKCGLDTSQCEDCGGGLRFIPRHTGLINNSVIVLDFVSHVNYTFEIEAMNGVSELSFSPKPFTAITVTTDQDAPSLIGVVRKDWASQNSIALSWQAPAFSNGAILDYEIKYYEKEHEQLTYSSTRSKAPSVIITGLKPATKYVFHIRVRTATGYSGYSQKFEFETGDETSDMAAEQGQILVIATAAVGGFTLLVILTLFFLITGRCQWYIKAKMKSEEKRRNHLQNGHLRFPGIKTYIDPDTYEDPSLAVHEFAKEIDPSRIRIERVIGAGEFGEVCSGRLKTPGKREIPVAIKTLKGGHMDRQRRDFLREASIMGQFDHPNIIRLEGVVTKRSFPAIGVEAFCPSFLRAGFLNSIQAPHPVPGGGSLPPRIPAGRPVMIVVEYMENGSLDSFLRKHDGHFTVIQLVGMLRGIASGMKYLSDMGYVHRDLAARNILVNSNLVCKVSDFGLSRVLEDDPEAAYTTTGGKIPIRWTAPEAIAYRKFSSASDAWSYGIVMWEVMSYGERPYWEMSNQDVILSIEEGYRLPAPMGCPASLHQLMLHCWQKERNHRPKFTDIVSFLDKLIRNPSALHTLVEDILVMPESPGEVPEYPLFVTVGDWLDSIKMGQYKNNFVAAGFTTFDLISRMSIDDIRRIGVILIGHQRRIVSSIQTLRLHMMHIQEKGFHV

[4] = target: Fibroblast growth factor receptor 1 (Homo sapiens, UniProt P11362); test: Selectivity interaction (Kinase screening (Nanosyn)) EUB0000604a FGFR1
[5] = target: T3, Rhodopsin kinase GRK7 (Homo sapiens) (UniProt Q8WTQ7); test: Selectivity interaction (KinomeScan (DiscoverX)) EUB0000695a GRK7; conditions: at 100 nM
T3 sequence (whole entry): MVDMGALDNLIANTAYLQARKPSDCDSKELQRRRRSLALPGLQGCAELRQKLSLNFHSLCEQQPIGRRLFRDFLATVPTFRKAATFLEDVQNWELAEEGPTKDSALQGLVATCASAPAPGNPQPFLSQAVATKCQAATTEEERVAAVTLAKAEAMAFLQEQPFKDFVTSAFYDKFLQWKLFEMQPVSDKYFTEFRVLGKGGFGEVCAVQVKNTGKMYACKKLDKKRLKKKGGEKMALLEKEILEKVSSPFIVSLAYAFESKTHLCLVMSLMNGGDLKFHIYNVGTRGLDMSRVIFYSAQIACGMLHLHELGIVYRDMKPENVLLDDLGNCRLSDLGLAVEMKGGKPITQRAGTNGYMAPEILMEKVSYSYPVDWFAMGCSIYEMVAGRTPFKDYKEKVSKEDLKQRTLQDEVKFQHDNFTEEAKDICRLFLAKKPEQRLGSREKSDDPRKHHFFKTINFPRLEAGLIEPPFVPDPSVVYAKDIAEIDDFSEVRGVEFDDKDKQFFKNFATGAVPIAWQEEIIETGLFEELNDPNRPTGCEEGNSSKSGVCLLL

Sequence of Epidermal growth factor receptor (Homo sapiens), P00533 [UNDEFINED MUTATION] (P00533 whole entry, looked up, change not shown): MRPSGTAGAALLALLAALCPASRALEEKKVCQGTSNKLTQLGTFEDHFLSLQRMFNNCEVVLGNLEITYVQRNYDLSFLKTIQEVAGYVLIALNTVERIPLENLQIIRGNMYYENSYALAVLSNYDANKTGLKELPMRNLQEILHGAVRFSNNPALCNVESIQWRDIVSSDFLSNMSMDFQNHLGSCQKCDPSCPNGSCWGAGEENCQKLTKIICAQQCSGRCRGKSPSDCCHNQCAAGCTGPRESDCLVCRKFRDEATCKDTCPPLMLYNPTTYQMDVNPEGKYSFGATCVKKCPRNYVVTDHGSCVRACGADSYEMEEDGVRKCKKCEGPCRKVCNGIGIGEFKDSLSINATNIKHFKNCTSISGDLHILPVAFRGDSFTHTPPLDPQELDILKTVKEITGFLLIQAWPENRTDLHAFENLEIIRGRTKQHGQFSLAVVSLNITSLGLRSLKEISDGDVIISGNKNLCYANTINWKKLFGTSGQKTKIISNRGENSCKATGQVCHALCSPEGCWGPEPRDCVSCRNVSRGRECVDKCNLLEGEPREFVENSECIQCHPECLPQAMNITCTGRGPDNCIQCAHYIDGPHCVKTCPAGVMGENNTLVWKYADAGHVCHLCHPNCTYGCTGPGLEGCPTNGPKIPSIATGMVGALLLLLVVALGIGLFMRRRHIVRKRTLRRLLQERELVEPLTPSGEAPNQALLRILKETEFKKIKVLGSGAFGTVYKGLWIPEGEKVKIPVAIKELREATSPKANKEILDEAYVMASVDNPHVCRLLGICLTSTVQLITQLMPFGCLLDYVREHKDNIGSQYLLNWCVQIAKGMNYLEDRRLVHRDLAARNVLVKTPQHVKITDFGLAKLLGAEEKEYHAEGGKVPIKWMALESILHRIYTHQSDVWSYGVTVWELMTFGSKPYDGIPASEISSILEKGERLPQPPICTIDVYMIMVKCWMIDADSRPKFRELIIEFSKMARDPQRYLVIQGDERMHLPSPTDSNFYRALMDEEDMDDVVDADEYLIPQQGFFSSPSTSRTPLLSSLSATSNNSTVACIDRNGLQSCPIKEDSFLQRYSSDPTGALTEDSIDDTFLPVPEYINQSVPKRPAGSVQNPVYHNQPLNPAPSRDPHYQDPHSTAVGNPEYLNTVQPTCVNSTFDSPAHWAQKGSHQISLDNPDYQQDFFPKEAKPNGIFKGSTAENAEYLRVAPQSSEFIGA
Sequence of Fibroblast growth factor receptor 1 (P11362 22-822 limits assumed): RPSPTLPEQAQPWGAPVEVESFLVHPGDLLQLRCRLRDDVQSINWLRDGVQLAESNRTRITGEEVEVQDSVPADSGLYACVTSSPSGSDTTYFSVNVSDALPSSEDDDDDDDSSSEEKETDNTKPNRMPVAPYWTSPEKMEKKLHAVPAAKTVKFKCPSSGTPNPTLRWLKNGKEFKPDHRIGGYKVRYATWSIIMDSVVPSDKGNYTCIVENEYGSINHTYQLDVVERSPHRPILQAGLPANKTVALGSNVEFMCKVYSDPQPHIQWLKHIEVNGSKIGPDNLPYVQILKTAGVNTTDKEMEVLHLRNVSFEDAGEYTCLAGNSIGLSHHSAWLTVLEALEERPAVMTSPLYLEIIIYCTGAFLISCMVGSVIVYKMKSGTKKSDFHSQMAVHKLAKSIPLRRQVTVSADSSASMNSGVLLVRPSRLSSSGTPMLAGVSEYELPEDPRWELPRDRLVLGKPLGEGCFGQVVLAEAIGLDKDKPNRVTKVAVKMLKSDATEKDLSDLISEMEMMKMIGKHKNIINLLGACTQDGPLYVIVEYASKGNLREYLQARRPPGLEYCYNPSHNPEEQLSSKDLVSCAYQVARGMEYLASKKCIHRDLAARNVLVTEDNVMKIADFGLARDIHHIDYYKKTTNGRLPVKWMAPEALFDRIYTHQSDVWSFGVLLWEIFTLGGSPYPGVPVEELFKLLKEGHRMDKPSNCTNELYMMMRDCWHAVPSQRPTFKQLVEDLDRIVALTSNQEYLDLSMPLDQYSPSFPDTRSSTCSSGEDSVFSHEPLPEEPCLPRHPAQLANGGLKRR

CN(C)CCOc1ccc(-c2nc(-c3ccncc3)c(-c3ccc4c(c3)CC/C4=N\O)[nH]2)cc1
% of control [1]: 81%

C=CC(=O)Nc1cccc(C(=O)Nc2ccc(Nc3cc(-c4[nH]c(SC)nc4C)ccn3)cc2)c1
% of control [2]: 96%

O=C(NOC[C@H](O)CO)c1ccc(F)c(F)c1Nc1ccc(I)cc1F
% of control [3]: 94%

Cc1cnc(Nc2ccc(F)cc2Cl)nc1-c1c[nH]c(C(=O)N[C@H](CO)c2cccc(Cl)c2)c1
% of inhibition [4]: 3%

Cc1cc(F)c(C(=O)Nc2cccc(-c3nncn3C(C)C)n2)cc1-n1cnc(C2CC2)c1
% of control [5]: 97%
